From US8450357B2, “Compositions comprising an aryl pyrazole and/or a formamidine, methods and uses thereof” (Merial Limited, priority 2008, dated 2013)

What was measured:
[1] = tested on: ticks (Rhipicephalus sanguineus); assay: Study B: tick efficacy of Compound 1 spot-on formulations in dogs; type: in vivo
Text: A separate clinical efficacy study in dogs was designed with an untreated control group and 5 test groups treated with compound 1. Each group had six dogs. Test articles were formulated as topical spot-on solutions containing compound 1, 10-20% w/v in a solvent or a combination of solvents as described above. Dogs were infested with approximately 50 ticks (Rhipicephalus sanguineus) on days −1, 7, 14, 21, 28, 35 and 42. Dogs were also infested with approximately 100 fleas (Ctenocephalides felis) on days −1, 8, 15, 22, 29, 36, and 43. Treatment was applied by parting the hair and applying the formulation directly onto the skin on one spot at the midline of the neck, between the base of the skull and the shoulder blades. […] […] It should be noted that Study A and Study B were conducted at different times and locations, and the results of each clinical study may differ from the other based on various environmental factors. Thus, the results of one clinical study should not be compared with those of another due to these factors.

[2] = tested on: ticks (Rhipicephalus sanguineus); assay: Study A: tick efficacy of Compound 1 spot-on formulations in dogs; type: in vivo
Method: An initial clinical study was conducted to test the efficacy of Compound 1 (3-cyano-1-(2-chloro-6-fluoro-4-trifluoromethylphenyl)-4-dichlorofluoromethylsulfinyl-5-methyl-1H-pyrazole) against ticks and fleas in various test formulations. Five test groups and an untreated control were evaluated. Each test group included six dogs. Compound was dissolved in a solvent or a combination of two or more solvents at 10% w/w. Test articles were formulated as topical spot-on solutions containing compound 1, 10% w/v in a solvent or a combination of solvents as described above. Dogs were infested with approximately 50 ticks (Rhipicephalus sanguineus) on days −1, 7, 14, 21, 28, 35 and 42. Dogs were also infested with approximately 100 fleas (Ctenocephalides felis) on days −1, 8, 15, 22, 29, 36, and 43. Treatment was applied by parting the hair and applying the formulation directly onto the skin on one spot at the midline of the neck, between the base of the skull and the shoulder blades. The dose rate of each of the topical solutions was 0.1 ml/kg (10 mg/kg) body weight. The efficacy of compound 1 in various formulations is shown Table 2 below.
Negative values indicate % increase in tick counts relative to control.

Structure (SMILES): Cc1c([S+]([O-])C(F)(Cl)Cl)c(C#N)nn1-c1c(F)cc(C(F)(F)F)cc1Cl (centres unmarked) [Compound 1, 3-cyano-1-(2-chloro-6-fluoro-4-trifluoromethylphenyl)-4-dichlorofluoromethylsulfinyl-5-methyl-1H-pyrazole]
- % Efficacy against ticks ([1]; Day 1, Trt. Group 2: 0.1 ml/kg (10 mg/kg) in Triacetin): 94.8%
- % Efficacy against ticks ([1]; Day 1, Trt. Group 3: 0.2 ml/kg (20 mg/kg) in Triacetin): 93.9%
- % Efficacy against ticks ([1]; Day 1, Trt. Group 4: 10 mg/kg in Diisopropyl adipate): 95.6%
- % Efficacy against ticks ([1]; Day 1, Trt. Group 5: 10 mg/kg in Diethylene glycol monoethyl ether (transcutol)): 87.4%
- % Efficacy against ticks ([1]; Day 1, Trt. Group 6: 10 mg/kg in Triacetin/diisopropyl adipate): 94.8%
- % Efficacy against ticks ([1]; Day 2, Trt. Group 2: 0.1 ml/kg (10 mg/kg) in Triacetin): 99.6%
- % Efficacy against ticks ([1]; Day 2, Trt. Group 3: 0.2 ml/kg (20 mg/kg) in Triacetin): 98.9%
- % Efficacy against ticks ([1]; Day 2, Trt. Group 4: 10 mg/kg in Diisopropyl adipate): 98.9%
- % Efficacy against ticks ([1]; Day 2, Trt. Group 5: 10 mg/kg in Diethylene glycol monoethyl ether (transcutol)): 98.5%
- % Efficacy against ticks ([1]; Day 2, Trt. Group 6: 10 mg/kg in Triacetin/diisopropyl adipate): 99.6%
- % Efficacy against ticks ([1]; Day 9, Trt. Group 2: 0.1 ml/kg (10 mg/kg) in Triacetin): 100%
- % Efficacy against ticks ([1]; Day 9, Trt. Group 3: 0.2 ml/kg (20 mg/kg) in Triacetin): 100%
- % Efficacy against ticks ([1]; Day 9, Trt. Group 4: 10 mg/kg in Diisopropyl adipate): 100%
- % Efficacy against ticks ([1]; Day 9, Trt. Group 5: 10 mg/kg in Diethylene glycol monoethyl ether (transcutol)): 100%
- % Efficacy against ticks ([1]; Day 9, Trt. Group 6: 10 mg/kg in Triacetin/diisopropyl adipate): 100%
- % Efficacy against ticks ([1]; Day 16, Trt. Group 2: 0.1 ml/kg (10 mg/kg) in Triacetin): 100%
- % Efficacy against ticks ([1]; Day 16, Trt. Group 3: 0.2 ml/kg (20 mg/kg) in Triacetin): 100%
- % Efficacy against ticks ([1]; Day 16, Trt. Group 4: 10 mg/kg in Diisopropyl adipate): 100%
- % Efficacy against ticks ([1]; Day 16, Trt. Group 5: 10 mg/kg in Diethylene glycol monoethyl ether (transcutol)): 100%
- % Efficacy against ticks ([1]; Day 16, Trt. Group 6: 10 mg/kg in Triacetin/diisopropyl adipate): 100%
- % Efficacy against ticks ([1]; Day 23, Trt. Group 2: 0.1 ml/kg (10 mg/kg) in Triacetin): 100%
- % Efficacy against ticks ([1]; Day 23, Trt. Group 3: 0.2 ml/kg (20 mg/kg) in Triacetin): 100%
- % Efficacy against ticks ([1]; Day 23, Trt. Group 4: 10 mg/kg in Diisopropyl adipate): 99.1%
- % Efficacy against ticks ([1]; Day 23, Trt. Group 5: 10 mg/kg in Diethylene glycol monoethyl ether (transcutol)): 100%
- % Efficacy against ticks ([1]; Day 23, Trt. Group 6: 10 mg/kg in Triacetin/diisopropyl adipate): 100%
- % Efficacy against ticks ([1]; Day 30, Trt. Group 2: 0.1 ml/kg (10 mg/kg) in Triacetin): 98.8%
- % Efficacy against ticks ([1]; Day 30, Trt. Group 3: 0.2 ml/kg (20 mg/kg) in Triacetin): 100%
- % Efficacy against ticks ([1]; Day 30, Trt. Group 4: 10 mg/kg in Diisopropyl adipate): 99.1%
- % Efficacy against ticks ([1]; Day 30, Trt. Group 5: 10 mg/kg in Diethylene glycol monoethyl ether (transcutol)): 98.8%
- % Efficacy against ticks ([1]; Day 30, Trt. Group 6: 10 mg/kg in Triacetin/diisopropyl adipate): 98.8%
- % Efficacy against ticks ([1]; Day 44, Trt. Group 2: 0.1 ml/kg (10 mg/kg) in Triacetin): 94.5%
- % Efficacy against ticks ([1]; Day 44, Trt. Group 3: 0.2 ml/kg (20 mg/kg) in Triacetin): 99.4%
- % Efficacy against ticks ([1]; Day 44, Trt. Group 4: 10 mg/kg in Diisopropyl adipate): 93.4%
- % Efficacy against ticks ([1]; Day 44, Trt. Group 5: 10 mg/kg in Diethylene glycol monoethyl ether (transcutol)): 98.5%
- % Efficacy against ticks ([1]; Day 44, Trt. Group 6: 10 mg/kg in Triacetin/diisopropyl adipate): 96.6%
- % Efficacy against ticks ([1]; Day 51, Trt. Group 2: 0.1 ml/kg (10 mg/kg) in Triacetin): 90.8%
- % Efficacy against ticks ([1]; Day 51, Trt. Group 3: 0.2 ml/kg (20 mg/kg) in Triacetin): 99.3%
- % Efficacy against ticks ([1]; Day 51, Trt. Group 4: 10 mg/kg in Diisopropyl adipate): 87.9%
- % Efficacy against ticks ([1]; Day 51, Trt. Group 5: 10 mg/kg in Diethylene glycol monoethyl ether (transcutol)): 98.9%
- % Efficacy against ticks ([1]; Day 51, Trt. Group 6: 10 mg/kg in Triacetin/diisopropyl adipate): 91.6%
- % Efficacy against ticks ([1]; Day 58, Trt. Group 2: 0.1 ml/kg (10 mg/kg) in Triacetin): 74.6%
- % Efficacy against ticks ([1]; Day 58, Trt. Group 3: 0.2 ml/kg (20 mg/kg) in Triacetin): 97.6%
- % Efficacy against ticks ([1]; Day 58, Trt. Group 4: 10 mg/kg in Diisopropyl adipate): 89.5%
- % Efficacy against ticks ([1]; Day 58, Trt. Group 5: 10 mg/kg in Diethylene glycol monoethyl ether (transcutol)): 94.1%
- % Efficacy against ticks ([1]; Day 58, Trt. Group 6: 10 mg/kg in Triacetin/diisopropyl adipate): 88.1%
- % Efficacy against ticks ([2]; Day 1, Trt. Group 2: 10 mg/kg in Butyl acetate/octyl acetate): 48.6%
- % Efficacy against ticks ([2]; Day 1, Trt. Group 3: 10 mg/kg in Diethylene glycol monoethyl ether (transcutol)/N-methyl-2-pyrrolidone): 59.0%
- % Efficacy against ticks ([2]; Day 1, Trt. Group 4: 10 mg/kg in Dipropylene glycol monomethyl ether/butyl acetate): 71.5%
- % Efficacy against ticks ([2]; Day 1, Trt. Group 5: 10 mg/kg in Diisopropyl adipate): 71.5%
- % Efficacy against ticks ([2]; Day 1, Trt. Group 6: 10 mg/kg in Triacetin): 80.7%
- % Efficacy against ticks ([2]; Day 2, Trt. Group 2: 10 mg/kg in Butyl acetate/octyl acetate): 67.6%
- % Efficacy against ticks ([2]; Day 2, Trt. Group 3: 10 mg/kg in Diethylene glycol monoethyl ether (transcutol)/N-methyl-2-pyrrolidone): 60.8%
- % Efficacy against ticks ([2]; Day 2, Trt. Group 4: 10 mg/kg in Dipropylene glycol monomethyl ether/butyl acetate): 72.0%
- % Efficacy against ticks ([2]; Day 2, Trt. Group 5: 10 mg/kg in Diisopropyl adipate): 86.0%
- % Efficacy against ticks ([2]; Day 2, Trt. Group 6: 10 mg/kg in Triacetin): 79.2%
- % Efficacy against ticks ([2]; Day 9, Trt. Group 2: 10 mg/kg in Butyl acetate/octyl acetate): 88.1%
- % Efficacy against ticks ([2]; Day 9, Trt. Group 3: 10 mg/kg in Diethylene glycol monoethyl ether (transcutol)/N-methyl-2-pyrrolidone): 78.1%
- % Efficacy against ticks ([2]; Day 9, Trt. Group 4: 10 mg/kg in Dipropylene glycol monomethyl ether/butyl acetate): 71.2%
- % Efficacy against ticks ([2]; Day 9, Trt. Group 5: 10 mg/kg in Diisopropyl adipate): 90.4%
- % Efficacy against ticks ([2]; Day 9, Trt. Group 6: 10 mg/kg in Triacetin): 83.1%
- % Efficacy against ticks ([2]; Day 16, Trt. Group 2: 10 mg/kg in Butyl acetate/octyl acetate): 88.7%
- % Efficacy against ticks ([2]; Day 16, Trt. Group 3: 10 mg/kg in Diethylene glycol monoethyl ether (transcutol)/N-methyl-2-pyrrolidone): 81.4%
- % Efficacy against ticks ([2]; Day 16, Trt. Group 4: 10 mg/kg in Dipropylene glycol monomethyl ether/butyl acetate): 90.5%
- % Efficacy against ticks ([2]; Day 16, Trt. Group 5: 10 mg/kg in Diisopropyl adipate): 83.2%
- % Efficacy against ticks ([2]; Day 16, Trt. Group 6: 10 mg/kg in Triacetin): 91.7%
- % Efficacy against ticks ([2]; Day 23, Trt. Group 2: 10 mg/kg in Butyl acetate/octyl acetate): 41.1%
- % Efficacy against ticks ([2]; Day 23, Trt. Group 3: 10 mg/kg in Diethylene glycol monoethyl ether (transcutol)/N-methyl-2-pyrrolidone): 52.2%
- % Efficacy against ticks ([2]; Day 23, Trt. Group 4: 10 mg/kg in Dipropylene glycol monomethyl ether/butyl acetate): 38.4%
- % Efficacy against ticks ([2]; Day 23, Trt. Group 5: 10 mg/kg in Diisopropyl adipate): 20.4%
- % Efficacy against ticks ([2]; Day 23, Trt. Group 6: 10 mg/kg in Triacetin): 89.1%
- % Efficacy against ticks ([2]; Day 30, Trt. Group 2: 10 mg/kg in Butyl acetate/octyl acetate): 64.0%
- % Efficacy against ticks ([2]; Day 30, Trt. Group 3: 10 mg/kg in Diethylene glycol monoethyl ether (transcutol)/N-methyl-2-pyrrolidone): 45.9%
- % Efficacy against ticks ([2]; Day 30, Trt. Group 4: 10 mg/kg in Dipropylene glycol monomethyl ether/butyl acetate): 71.7%
- % Efficacy against ticks ([2]; Day 30, Trt. Group 5: 10 mg/kg in Diisopropyl adipate): 78.2%
- % Efficacy against ticks ([2]; Day 30, Trt. Group 6: 10 mg/kg in Triacetin): 72.3%
- % Efficacy against ticks ([2]; Day 44, Trt. Group 2: 10 mg/kg in Butyl acetate/octyl acetate): −8.6%
- % Efficacy against ticks ([2]; Day 44, Trt. Group 3: 10 mg/kg in Diethylene glycol monoethyl ether (transcutol)/N-methyl-2-pyrrolidone): −10.8%
- % Efficacy against ticks ([2]; Day 44, Trt. Group 4: 10 mg/kg in Dipropylene glycol monomethyl ether/butyl acetate): −29.9%
- % Efficacy against ticks ([2]; Day 44, Trt. Group 5: 10 mg/kg in Diisopropyl adipate): 0.3%
- % Efficacy against ticks ([2]; Day 44, Trt. Group 6: 10 mg/kg in Triacetin): 47.8%
